Source: patent US12221446B2 (Merck Patent GmbH, priority 2018, dated 2025)
Where two headings read alike, the source gives them in different places.

Assays:
[1] = 25° C./60% rh; for Pyrazino-s-triazine derivative of 4α-hydroxy-5-methyl-THF (MeFox) (% w/w): major degradation product
[2] = Method: DVS measurements are typically performed with an SPS11-100n “Sorptions Prüfsystem” from ProUmid (formerly “Projekt Messtechnik”), August-Nagel-Str. 23, 89079 Ulm (Germany).
DVS measurements were performed with an SPS11-100n “Sorptions Prüfsystem” from ProUmid (formerly “Projekt Messtechnik”), August-Nagel-Str. 23, 89079 Ulm (Germany).

[3] = Water content / TG-FTIR analysis
[4] = for Pyrazino-s-triazine derivative of 4α-hydroxy-5-methyl-THF (MeFox) (% abs.): 40° C./75% rh, major degradation product

With CN1c2c([nH]c(N)nc2=O)NC[C@@H]1CNc1ccc(C(=O)N[C@@H](CCC(=O)[O-])C(=O)[O-])cc1.[Ca+2] the “Pyrazino-s-triazine derivative of 4α-hydroxy-5-methyl-THF (MeFox) (% w/w)” value (from here on “Pyrazino-s-triazine derivative … (% w/w)”) ([1]; 0 months) was 0.20 % w/w, the “Pyrazino-s-triazine derivative … (% w/w)” value ([1]; 3 months) was 0.59 % w/w and the “Pyrazino-s-triazine derivative … (% w/w)” value ([1]; 6 months) was 0.71 % w/w. For the same compound, the “Pyrazino-s-triazine derivative … (% w/w)” value ([1]; 9 months) was 0.68 % w/w, the “content of MeFox” value ([1]; already before reaching 9 months) was “over 0.6%” and the “change of water content” value ([2]; relative humidity from 20 to 75% r.h.) was “more than 6%”. For the same compound, the “change of water content (DVS)” value ([2]; within the tested range, 0 to 75% r.h.) was “more than 6%”, the “water content (generally)” value ([3]; general statement) was “more than 10%” and the water content ([3]; measured on a sample) was 12.4%. For the same compound, the “Pyrazino-s-triazine derivative of 4α-hydroxy-5-methyl-THF (MeFox) (% abs.)” value (“Pyrazino-s-triazine derivative … (% abs.)” for short) ([4]; 0 months) was 0.20 % abs, the “Pyrazino-s-triazine derivative … (% abs.)” value ([4]; 3 months) was 0.72 % abs and the “Pyrazino-s-triazine derivative … (% abs.)” value ([4]; 6 months) was 0.80 % abs. The “Pyrazino-s-triazine derivative … (% abs.)” value ([4]; 9 months) was 0.68 % abs and the “content of MeFox” value ([4]; already before reaching 9 months (Table 7)) was “over 0.6%”.
